The record followed here is patent US20240156790A1, “COMPOUNDS, COMPOSITIONS, AND METHODS FOR MODULATING FERROPTOSIS AND TREATING EXCITOTOXIC DISORDERS” (THE TRUSTEES OF COLUMBIA UNIVERSITY IN THE CITY OF NEW YORK, priority 2018, published 2024).

The term IC50 denotes the midpoint of a concentration-inhibition curve. In general, EC50 refers to the concentration needed to bring the measured effect to its halfway point.

Entries after “also recorded” stand apart in the source; their conditions may differ. Where two headings read alike, the source gives them in different places.

Assay [1] concerns N27 rat dopaminergic cells. Put plainly: Suppression of ferroptosis induced by RSL3 in N27 cells (CellTiter-Glo viability). Conditions: for IC50: Rattus norvegicus, read-out: IC50; for ability to suppress ferroptosis, in words: RSL3 20 nM, 24 hours of incubation. The class given is cell-based. On the technique in general: In ATP-based viability assays light output follows the ATP content of the culture.

In assay [2] the test system is HT-1080 cells. Put plainly: Rescue activity of Fer-1 analogs: inhibition of erastin-, IKE- or RSL3-induced death (Alamar Blue viability). The class given is cell-based. The settings on record: Homo sapiens. As for the experimental part:
HT-1080 cells are cultured in DMEM containing 10% fetal bovine serum, 1% supplemented non-essential amino acids and 1% pen/strep mixture (Gibco) and maintained in a humidified environment at 37° C. with 5% CO2 in a tissue culture incubator. 1,000 HT-1080 cells are seeded per well in duplicate 384-well plates (Corning) using a BioMek FX liquid handling robot (Beckman Coulter). The next day, the medium is replaced with 36 μL of medium containing 10 μM erastin with 4 μL of medium containing a dilution series (previously prepared) of DMSO, Fer-1 (positive control) or Fer-1 analogs. […] Cells are incubated a further 6 hours and then the Alamar Blue fluorescence intensity recorded using a Victor 3 platereader (PerkinElmer)(ex/em 530/590). All experiments are performed at least twice and the background (no cells)-subtracted Alamar Blue values for each combination are averaged between replicates. The same procedure was repeated by replacing erastin (10 μM) with IKE (3 μM) or RSL3 (0.2 μM).
(In general: Alamar Blue is a resazurin reagent that responds to reducing activity.)

[3] abbreviates: N27, 48 h, Table 13, 20 nM RSL3, treated for 48 hours^e.
[4] abbreviates: HT-1080, ^a 50% viability, HT-1080 cells treated with 10 μM erastin.
[5] abbreviates: HT-1080, ^b 50% viability, HT-1080 treated with 3 μM IKE.
The mark [6] stands for this setting: HT-1080, ^c 50% viability, HT-1080 treated with 0.2 μM RSL3.
Where [7] appears, read: N27, 24 h, Table 3, ^d 24 hr treatment, 1,000 cells/well seeded.
Where [8] appears, read: N27, 24 h, Table 13, 20 nM RSL3, treated for 24 hours^d.

With `Cc1noc(-c2cc(N(C(C)C)C(C)C)cnc2NC2CCCCC2)n1` [TH-3-86-R2, N^2-cyclohexyl-N^5,N^5-diisopropyl-3-(3-methyl-1,2,4-oxadiazol-5-yl)pyridine-2,5-diamine], the IC50 in assay [1] (setting [3]) was found to be 1040 nM; in assay [1] (N27, text, 20 nM RSL3), 1000 nM.

In the case of `CCOC(=O)c1cnc(NC2CCCCC2)c(N)c1` [YZ1108, ethyl 5-amino-6-(cyclohexylamino)nicotinate], the 50% effective concentration (EC50) in assay [2] (setting [4]) amounted to 315 nM; in assay [2] (setting [5]), 639 nM; in assay [2] (setting [6]), 1040 nM.

For the compound `Cc1noc(-c2cnc(NC3CCCC3)c(NC3CCCCC3)c2)n1` [TH-4-66, N^3-cyclohexyl-N^2-cyclopentyl-5-(3-methyl-1,2,4-oxadiazol-5-yl)pyridine-2,3-diamine], the “potency relative to fer-1, in words” value in assay [1] (20 nM RSL3) is “more potent than fer-1”. The half-maximal inhibitory concentration (IC50) in assay [1] (setting [7]) and in assay [1] (setting [8]) was 3.1 nM in each case.

On to `Cc1noc(-c2ccc(NC3CCCCC3)c(NC3CCCC3)c2)n1` [TH-1-45-1, N1-cyclohexyl-N2-cyclopentyl-4-(3-methyl-1,2,4-oxadiazol-5-yl)benzene-1,2-diamine], for which the EC50 in assay [2] (setting [4]) was found to be 33.8 nM; in assay [2] (setting [5]), 17.3 nM; in assay [2] (setting [6]), 5.1 nM.

For the compound `Cc1noc(-c2cnc(NC3CCCC3)c(NC3CCC3)c2)n1` [TH-4-62, N^3-cyclobutyl-N^2-cyclopentyl-5-(3-methyl-1,2,4-oxadiazol-5-yl)pyridine-2,3-diamine], the IC50 in assay [1] (setting [7]) and in assay [1] (setting [8]) was 6.9 nM throughout.

Turning to `Cc1noc(-c2cnc(NC3CCCCC3)c(NC3CCC3)c2)n1` [TH-4-55-1, N^3-cyclobutyl-N^2-cyclohexyl-5-(3-methyl-1,2,4-oxadiazol-5-yl)pyridine-2,3-diamine], in assay [1] (20 nM RSL3), the “potency relative to fer-1, in words” value is reported as “more potent than fer-1”. In addition, the half-maximal inhibitory concentration (IC50) in assay [1] (setting [7]) and in assay [1] (setting [8]) was 2.2 nM in each case.

For `CCC(CC)Nc1cc(-c2nc(C)no2)ccc1NC1CCCCC1` [TH-1-45-3, N1-cyclohexyl-4-(3-methyl-1,2,4-oxadiazol-5-yl)-N2-(pentan-3-yl)benzene-1,2-diamine], the EC50 was 37.8 nM in assay [2] (setting [4]), 26.9 nM in assay [2] (setting [5]) and 6.6 nM in assay [2] (setting [6]).

Turning to `Cc1noc(-c2ccc(NC3CCCCC3)c(NCc3ccccc3)c2)n1` [TH-1-53-2], the EC50 was 44.5 nM in assay [2] (setting [4]), 40.2 nM in assay [2] (setting [5]) and 9.4 nM in assay [2] (setting [6]).

As for `Cc1noc(-c2cc(NC3CCCC3)cnc2NC2CCCCC2)n1` [TH-4-53-2, N^2-cyclohexyl-N^5-cyclopentyl-3-(3-methyl-1,2,4-oxadiazol-5-yl)pyridine-2,5-diamine], in assay [1] (20 nM RSL3), the “potency relative to fer-1, in words” value is listed as “more potent than fer-1; also recorded: the most potent of the analogs tested”. Besides, the IC50 in assay [1] (setting [8]) was found to be 1.8 nM.

With `CCC(CC)Nc1cnc(NC2CCCCC2)c(-c2nc(C)no2)c1` [TH-4-53-1, N^2-cyclohexyl-3-(3-methyl-1,2,4-oxadiazol-5-yl)-N^5-(pentan-3-yl)pyridine-2,5-diamine], the IC50 in assay [1] (setting [8]) came out at 32.7 nM.

For `COc1ccc(NC2CCCCC2)c(NC(C)C)n1` [TH-3-95-1-r1, N3-cyclohexyl-N2-isopropyl-6-methoxypyridine-2,3-diamine], the results for the IC50 in assay [1] (setting [8]) and in assay [1] (setting [3]) were 30.5 nM and 22.4 nM, respectively.

In the case of `COc1ccc(NC(C)C)c(NC(C)C)n1` [TH-3-95-2-R1, N2,N3-diisopropyl-6-methoxypyridine-2,3-diamine], the concentration for half-maximal inhibition (IC50) in assay [1] (setting [8]) worked out at 35.7 nM; in assay [1] (setting [3]) it was 0.22 nM.

Consider `CC(C)(C)OC(=O)c1cnc(NC2CCCCC2)c(NC2CCCCC2)c1` [CFI-101], for which the concentration giving a half-maximal response (EC50) in assay [2] (setting [4]) came out at 354 nM; in assay [2] (setting [5]), 171 nM; in assay [2] (setting [6]), 163 nM.

For `Cc1noc(-c2ccc(NC3CCCCC3)c(NCc3ccncc3)c2)n1` [TH-1-53-3, N1-cyclohexyl-4-(3-methyl-1,2,4-oxadiazol-5-yl)-N2-(pyridin-4-ylmethyl)benzene-1,2-diamine], the half-maximal effective concentration (EC50) came out at 63.8 nM in assay [2] (setting [4]), 63 nM in assay [2] (setting [5]) and 31.5 nM in assay [2] (setting [6]).

In the case of `Cc1noc(-c2cnc(NC3CCCCC3)c(NC3CCCC3)c2)n1` [TH-4-16-1, N^2-cyclohexyl-N^3-cyclopentyl-5-(3-methyl-1,2,4-oxadiazol-5-yl)pyridine-2,3-diamine], the IC50 in assay [1] (setting [7]) worked out at 5.1 nM; in assay [1] (setting [8]) it was 5.1 nM; in assay [1] (N27, 48 h, Table 3, ^e 48 hr treatment, 1,000 cells/well seeded) it was 8.2 nM; in assay [1] (setting [3]), 8.2 nM.

Regarding `CC(C)(C)OC(=O)c1cnc(NC2CCCCC2)c(N)c1` [YZ1113, tert-butyl 5-amino-6-(cyclohexylamino)nicotinate], the figures for the concentration giving a half-maximal response (EC50) in assay [2] (setting [4]), in assay [2] (setting [5]) and in assay [2] (setting [6]) were 338 nM, 312 nM and 156 nM, respectively.

On to `CC(C)(C)OC(=O)c1cnc(NC23CC4CC(CC(C4)C2)C3)c(NC2CCCCC2)c1` [YZ1118, tert-butyl 6-(((3s,5s,7s)-adamantan-1-yl)amino)-5-(cyclohexylamino)nicotinate], for which the 50% effective concentration (EC50) in assay [2] (setting [5]) was 40.1 nM; in assay [2] (setting [6]) it was 37.3 nM.

Take `CCN(CC)c1ncc(-c2nc(C)no2)cc1[N+](=O)[O-]` [TH-4-46-2, N,N-diethyl-5-(3-methyl-1,2,4-oxadiazol-5-yl)-3-nitropyridin-2-amine]: the “ability to suppress ferroptosis, in words” value (“ability” below) in assay [1] is given as “unable to suppress ferroptosis”.

For `CCC(CC)Nc1cc(-c2nc(C)no2)cnc1NC1CCCC1` [TH-4-68, N^2-cyclopentyl-5-(3-methyl-1,2,4-oxadiazol-5-yl)-N^3-(pentan-3-yl)pyridine-2,3-diamine], the 50% inhibitory concentration (IC50) in assay [1] (setting [7]) and in assay [1] (setting [8]) was 4 nM throughout.

As for `Cc1noc(-c2ccc(NC3CCCCC3)c(NC(C)C)c2)n1` [TH-1-45-2, N1-cyclohexyl-N2-isopropyl-4-(3-methyl-1,2,4-oxadiazol-5-yl)benzene-1,2-diamine], the EC50 in assay [2] (setting [4]) stood at 22.3 nM; in assay [2] (setting [5]), 16.2 nM; in assay [2] (setting [6]), 4.2 nM.

`CC(C)(C)OC(=O)c1cnc(NC23CC4CC(CC(C4)C2)C3)c(N)c1` [YZ1117, tert-butyl 6-(((3s,5s,7s)-adamantan-1-yl)amino)-5-aminonicotinate]: the EC50 came out at 85 nM in assay [2] (setting [4]), 68.4 nM in assay [2] (setting [5]) and 39.1 nM in assay [2] (setting [6]).

Regarding `CCOC(=O)c1cnc(NC2CCCCC2)c(NCc2ccccc2)c1` [YZ1109, ethyl 5-(benzylamino)-6-(cyclohexylamino)nicotinate], the EC50 in assay [2] (setting [4]) worked out at 317 nM; in assay [2] (setting [5]), 166 nM; in assay [2] (setting [6]) it was 115 nM.

With `COc1ccc(N)c(NC(C)C)n1` [TH-3-83-2, N2-isopropyl-6-methoxypyridine-2,3-diamine], the IC50 in assay [1] (setting [8]) stood at 19.5 nM; in assay [1] (setting [3]), 33.6 nM.

`Cc1noc(-c2cnc(NC3CCCC3)c([N+](=O)[O-])c2)n1` [TH-4-58-2, N-cyclopentyl-5-(3-methyl-1,2,4-oxadiazol-5-yl)-3-nitropyridin-2-amine]: the “ability” value in assay [1] is “unable to suppress ferroptosis”.

As to `Cc1noc(-c2cnc(NC3CCCCC3)c([N+](=O)[O-])c2)n1` [TH-4-50-2, N-cyclohexyl-5-(3-methyl-1,2,4-oxadiazol-5-yl)-3-nitropyridin-2-amine], in assay [1], the “ability” value is on record as “unable to suppress ferroptosis”.

On to `C=C/C(=C\C(F)=C\COC(C)(C)C)NC12CC3CC(CC(C3)C1)C2` [CFI-A78], for which the EC50 in assay [2] (setting [5]) worked out at 26 nM; in assay [2] (setting [6]) it was 18 nM.
